Data reported in patent publication US11845730B2, “1,3-substituted cyclobutyl derivatives and uses thereof” (Novartis AG, priority 2021, dated 2023).
Counter-ions that a name gives are not always drawn.

Target: human TRPV1 (Homo sapiens (Human), UniProt Q8NER1)
Settings: read-out: IC50 (μM), antagonist effect against human TRPV1; CHO cells expressing human TrpV1; stimulated with 2.5 μM NADA (EC80); mean of at least three independent experiments
Method: Chinese Hamster Ovary (CHO) cells transfected to express human TrpV1 receptor (which are herein referred to as CHO-huTrpV1 cells), were grown in F-12 Ham's Nutrient Mixture media (HyClone SH30026.01) supplemented with 10% Fetal Bovine Serum (Invitrogen #26140-079), 1% Antibiotic/antimycotic (Invitrogen #15240-062) and 500 ug/mL geneticin (ThermoFisher scientific #1031035). Cells were grown in T-75 flasks at 37° C. incubator with 5% CO2. The cells were passaged twice a week at a ratio of 1:10 to 1:20 to maintain steady growth. For experimentation, cells were harvested at approximately 80% confluency and plated onto 384 well black cell culture plates (cat #781091, Greinier Bio-One Inc.) at 15,000 cells per well in 20 μl media and grown overnight.
The loading dye was prepared following instruction of Calcium 6 assay kit (Molecular Probes, #R8190): 10 ml buffer from bottle B was added to 1 vial of bottle A (adapted to room temperature from −20° C.) and mixed well, then 2.5 mM of fresh prepared probenecid, was added and mixed well. 20 μl/well of loading dye was added on top of the cells, and incubated at 37° C. for 1 hour 30 min.
Assay buffer preparation: 1×HBSS, 2 mM HEPES, 0.1% BSA plus 2.5 mM freshly prepared probenecid (Invitrogen, #P36400). 25 μl/well assay buffer in 384 well clear plate (cat #782281, Greiner Bio-one) was dispensed with buffer distributor (Multidrop ComB1 from Thermo Scientific). The compounds were in 384 Echo plate (cat #LPL0200, Labcyte) and the starting concentration of compound was 10 mM, then 1 to 3 serial dilution in 100% DMSO, 8 ul/well). 125 nl compounds was transferred to the 384 well plate containing 25 μl/well buffer with Echo® 555 Liquid Handler (Labcyte), such that the compound concentration was 5 fold of final concentration. The plate was shook slowly at 40 rpm/min for 10 min to mix. 10 μl of 5 fold compound in the buffer was transferred to the cell plate (containing 20 μl cells and 20 μl dye) using Vertical Pipetting Station 384ST (Agilent Technologies). Six fold of final concentration of NADA (N-arachidonyl dopamine, cat #A8848, Sigma) in the assay buffer was prepared and 30 μl/well was distributed in 384 well clear plate.
After compounds were added to the cell plate with loading dye, within 10-15 minutes, cell plate and plate containing NADA was placed into the FLIPR (Fluorescent Imaging Plate Reader) instrument (Tetra System, Molecular device). The TRPV1 receptor was stimulated by application of 10 μl per well of NADA. For testing the effect of compounds for possible antagonism, 2.5 μM NADA was used at the EC80 concentration.
For determination of antagonist IC50 values (concentration of antagonist that inhibits response to NADA by 50%), at least 10 antagonist concentration were measured in triplicate. The response in the presence of the antagonist was calculated as a percentage of the control response to NADA and was plotted against the concentration of the antagonist. The IC50 was estimated by non-linear regression analysis to sigmoidal-logistic curves by HELIOS (PROD 2) system. These values were averaged (means and standard error of the mean) for at least three independent experiments.

human TRPV1, sequence (Q8NER1 whole entry): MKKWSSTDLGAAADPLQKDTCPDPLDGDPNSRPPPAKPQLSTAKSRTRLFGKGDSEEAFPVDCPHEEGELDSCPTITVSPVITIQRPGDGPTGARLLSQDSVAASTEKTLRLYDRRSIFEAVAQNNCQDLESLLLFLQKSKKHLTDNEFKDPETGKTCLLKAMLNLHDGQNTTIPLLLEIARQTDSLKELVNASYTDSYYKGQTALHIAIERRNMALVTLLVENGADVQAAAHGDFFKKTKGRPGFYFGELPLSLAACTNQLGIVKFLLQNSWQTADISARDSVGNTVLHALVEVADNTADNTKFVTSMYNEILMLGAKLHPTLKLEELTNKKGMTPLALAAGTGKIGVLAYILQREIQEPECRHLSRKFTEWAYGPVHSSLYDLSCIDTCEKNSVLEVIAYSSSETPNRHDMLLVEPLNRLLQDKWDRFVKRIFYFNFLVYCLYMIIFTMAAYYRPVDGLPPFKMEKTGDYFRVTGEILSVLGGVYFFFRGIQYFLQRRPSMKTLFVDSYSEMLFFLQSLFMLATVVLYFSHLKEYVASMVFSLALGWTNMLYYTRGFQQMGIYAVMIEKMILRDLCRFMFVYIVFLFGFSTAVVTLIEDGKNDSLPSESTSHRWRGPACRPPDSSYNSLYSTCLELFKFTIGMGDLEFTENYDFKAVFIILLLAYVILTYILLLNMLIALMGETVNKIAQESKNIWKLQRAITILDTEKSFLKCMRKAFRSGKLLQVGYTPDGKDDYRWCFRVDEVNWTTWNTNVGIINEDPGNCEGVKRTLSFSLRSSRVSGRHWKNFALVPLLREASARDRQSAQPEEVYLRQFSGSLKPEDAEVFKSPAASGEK

**Q.** For `OCCC(O)c1cc(F)c(CNC2CC(Oc3ccc(F)c(C(F)(F)F)c3)C2)c2ccncc12` (racemic) [Example 9 racemic, 1-(6-fluoro-5-((((1r,3r)-3-(4-fluoro-3-(trifluoromethyl)phenoxy)cyclobutyl)amino)methyl)isoquinolin-8-yl)propane-1,3-diol], which IC50 is on record?
**A.** 0.00058 µM

**Q.** For `CCOC(=O)c1cc(O[C@H]2C[C@H](NCc3c(F)ccc4cnccc34)C2)ccc1C(F)(F)F` [Example 60, ethyl 5-((1r,3r)-3-(((6-fluoroisoquinolin-5-yl)methyl)amino)cyclobutoxy)-2-(trifluoromethyl)benzoate], which IC50 is on record?
**A.** 0.32 µM

**Q.** `Cc1c(F)cc(O[C@H]2C[C@H](NCc3c(F)ccc4cnccc34)C2)cc1F` [Example 52, (1r,3r)-3-(3,5-difluoro-4-methylphenoxy)-N-((6-fluoroisoquinolin-5-yl)methyl)cyclobutan-1-amine] was tested. Which IC50 did it give?
**A.** 0.0271 µM

**Q.** How did the IC50 turn out when `Cc1ccc2cnccc2c1CN[C@H]1C[C@H](Oc2ccc(F)c(C(F)(F)F)c2)C1` [Example 1, (1r,3r)-3-(4-fluoro-3-(trifluoromethyl)phenoxy)-N-((6-methylisoquinolin-5-yl)methyl)cyclobutan-1-amine, HCl] was run?
**A.** 0.0208 µM

**Q.** How did the IC50 turn out when `N#Cc1c(O[C@H]2C[C@H](NCc3c(F)ccc4cnccc34)C2)cccc1C(F)(F)F` [Example 61, 2-((1r,3r)-3-(((6-fluoroisoquinolin-5-yl)methyl)amino)cyclobutoxy)-6-(trifluoromethyl)benzonitrile] was run?
**A.** 0.194 µM

**Q.** For `COc1ncc(O[C@H]2C[C@H](NCc3c(F)ccc4cnccc34)C2)cc1C(F)(F)F` [Example 92, (1r,3r)-N-((6-fluoroisoquinolin-5-yl)methyl)-3-((6-methoxy-5-(trifluoromethyl)pyridin-3-yl)oxy)cyclobutan-1-amine, HCl], which IC50 is on record?
**A.** 0.58 µM

**Q.** How did the IC50 turn out when `Nc1cc2c(CC(=O)N[C@H]3C[C@H](Oc4ccc(F)c(C(F)(F)F)c4)C3)c(F)ccc2cn1` [Example 69, 2-(3-amino-6-fluoroisoquinolin-5-yl)-N-((1r,3r)-3-(4-fluoro-3-(trifluoromethyl)phenoxy)cyclobutyl)acetamide] was run?
**A.** 0.00015 µM

**Q.** Which IC50 does the source give for `Fc1ccc2cnccc2c1CN[C@H]1C[C@H](Oc2ccc(C3CC3(F)F)cc2)C1` (stereo partly shown) [Example 42, (1r,3r)-3-(4-(2,2-difluorocyclopropyl)phenoxy)-N-((6-fluoroisoquinolin-5-yl)methyl)cyclobutan-1-amine, HCO2H] here?
**A.** 0.173 µM

**Q.** For `Fc1ccc(O[C@H]2C[C@H](NCc3c(F)ccc4cnccc34)C2)cc1F` [Example 27, (1r,3r)-3-(3,4-difluorophenoxy)-N-((6-fluoroisoquinolin-5-yl)methyl)cyclobutan-1-amine, HCl], which IC50 is on record?
**A.** 0.023 µM

**Q.** With `Fc1ccc2cnccc2c1CN[C@H]1C[C@H](Oc2ccc(C(F)(F)F)cc2)C1` [Example 76, (1r,3r)-N-((6-fluoroisoquinolin-5-yl)methyl)-3-(4-(trifluoromethyl)phenoxy)cyclobutan-1-amine, HCl] as the compound, how does the IC50 read?
**A.** 0.0277 µM

**Q.** With `FCC(F)c1cc(O[C@H]2C[C@H](NCc3c(F)ccc4cnccc34)C2)ccc1F` (stereo partly shown) [Example 40, (1r,3r)-3-(3-(1,2-difluoroethyl)-4-fluorophenoxy)-N-((6-fluoroisoquinolin-5-yl)methyl)cyclobutan-1-amine] as the compound, how does the IC50 read?
**A.** 0.124 µM

**Q.** For `Nc1nccc2c(CN[C@H]3C[C@H](Oc4ccc(F)c(C(F)(F)F)c4)C3)cccc12` [Example 109, 5-((((1r,3r)-3-(4-fluoro-3-(trifluoromethyl)phenoxy)cyclobutyl)amino)methyl)isoquinolin-1-amine], which IC50 is on record?
**A.** 1.46 µM

**Q.** How did the IC50 turn out when `Fc1ccc2cnccc2c1CN[C@H]1C[C@H](Oc2cccc(S(F)(F)(F)(F)F)c2)C1` [Example 33, (1r,3r)-N-((6-fluoroisoquinolin-5-yl)methyl)-3-(3-(pentafluoro-λ^6-sulfaneyl)phenoxy)cyclobutan-1-amine, HCl] was run?
**A.** 0.0154 µM

**Q.** For `Fc1cc(O[C@H]2C[C@H](NCc3c(F)ccc4cnccc34)C2)ccc1C(F)F` [Example 101, (1r,3r)-3-(4-(difluoromethyl)-3-fluorophenoxy)-N-((6-fluoroisoquinolin-5-yl)methyl)cyclobutan-1-amine], which IC50 is on record?
**A.** 0.0147 µM

**Q.** Which IC50 does the source give for `Nc1cc2c(CN[C@H]3C[C@H](Oc4ccc(F)cc4F)C3)c(F)ccc2cn1` [Example 15, 5-((((1r,3r)-3-(2,4-difluorophenoxy)cyclobutyl)amino)methyl)-6-fluoroisoquinolin-3-amine, HCl] here?
**A.** 0.051 µM

**Q.** With `OCc1cc(F)c(CN[C@H]2C[C@H](Oc3ccnc(C(F)(F)F)c3)C2)c2ccncc12` [Example 90, (6-fluoro-5-((((1r,3r)-3-((2-(trifluoromethyl)pyridin-4-yl)oxy)cyclobutyl)amino)methyl)isoquinolin-8-yl)methanol] as the compound, how does the IC50 read?
**A.** 0.874 µM

**Q.** Which IC50 does the source give for `CC(=O)NCC(O)c1cc(F)c(CN[C@H]2C[C@H](Oc3ccc(F)c(C(F)(F)F)c3)C2)c2ccncc12` (stereo partly shown) [Example 70, N-(2-(6-fluoro-5-((((1r,3r)-3-(4-fluoro-3-(trifluoromethyl)phenoxy)cyclobutyl)amino)methyl)isoquinolin-8-yl)-2-hydroxyethyl)acetamide] here?
**A.** 0.402 µM

**Q.** For `[O-][n+]1ccc2c(CN[C@H]3C[C@H](Oc4ccc(F)c(C(F)(F)F)c4)C3)c(F)ccc2c1` [Example 73, 6-fluoro-5-((((1r,3r)-3-(4-fluoro-3-(trifluoromethyl)phenoxy)cyclobutyl)amino)methyl)isoquinoline 2-oxide], which IC50 is on record?
**A.** 0.193 µM

**Q.** With `CC(O)c1cc(F)c(CN[C@H]2C[C@H](Oc3ccc(F)c(C(F)(F)F)c3)C2)c2ccncc12` (stereo partly shown) [Example 8, 1-(6-fluoro-5-((((1r,3r)-3-(4-fluoro-3-(trifluoromethyl)phenoxy)cyclobutyl)amino)methyl)isoquinolin-8-yl)ethan-1-ol, HCl] as the compound, how does the IC50 read?
**A.** 0.165 µM

**Q.** How did the IC50 turn out when `C[C@]1(NCc2c(F)ccc3cnccc23)C[C@H](Oc2ccc(F)c(C(F)(F)F)c2)C1` [Example 68 trans, (1r,3r)-3-(4-fluoro-3-(trifluoromethyl)phenoxy)-N-((6-fluoroisoquinolin-5-yl)methyl)-1-methylcyclobutan-1-amine] was run?
**A.** 0.0129 µM

**Q.** With `Fc1ccc(O[C@H]2C[C@H](NCc3cccc4cnc(Cl)cc34)C2)cc1C(F)(F)F` [Example 98, (1r,3r)-N-((3-chloroisoquinolin-5-yl)methyl)-3-(4-fluoro-3-(trifluoromethyl)phenoxy)cyclobutan-1-amine, HCl] as the compound, how does the IC50 read?
**A.** 0.418 µM

**Q.** How did the IC50 turn out when `Fc1ccc2cnccc2c1CN[C@H]1C[C@H](Oc2cccc(OC(F)F)c2)C1` [Example 29, (1r,3r)-3-(3-(difluoromethoxy)phenoxy)-N-((6-fluoroisoquinolin-5-yl)methyl)cyclobutan-1-amine, HCl] was run?
**A.** 0.0623 µM

**Q.** For `Fc1ccc(O[C@H]2C[C@H](NCc3cccc4cnccc34)C2)cc1Cl` [Example 28, (1r,3r)-3-(3-chloro-4-fluorophenoxy)-N-(isoquinolin-5-ylmethyl)cyclobutan-1-amine, HCl], which IC50 is on record?
**A.** 0.28 µM

**Q.** With `Nc1cc2c(CN[C@H]3C[C@H](Oc4ccc(C(F)(F)F)nc4)C3)cccc2cn1` [Example 74, 5-((((1r,3r)-3-((6-(trifluoromethyl)pyridin-3-yl)oxy)cyclobutyl)amino)methyl)isoquinolin-3-amine] as the compound, how does the IC50 read?
**A.** 0.995 µM

**Q.** For `Fc1ccc(O[C@H]2C[C@H](NCc3cccc4cncnc34)C2)cc1C(F)(F)F` [Example 87, (1r,3r)-3-(4-fluoro-3-(trifluoromethyl)phenoxy)-N-(quinazolin-8-ylmethyl)cyclobutan-1-amine, HCl], which IC50 is on record?
**A.** 0.321 µM

**Q.** For `Fc1ccc2cnccc2c1CN[C@H]1C[C@H](Oc2ccc3c(c2)OC(F)(F)C(F)(F)O3)C1` [Example 39, (1r,3r)-N-((6-fluoroisoquinolin-5-yl)methyl)-3-((2,2,3,3-tetrafluoro-2,3-dihydrobenzo[b][1,4]dioxin-6-yl)oxy)cyclobutan-1-amine, HCl], which IC50 is on record?
**A.** 0.0108 µM

**Q.** `Fc1ccc2cnccc2c1CN[C@H]1C[C@H](Oc2ccnc(C(F)F)c2)C1` [Example 111, (1r,3r)-3-((2-(difluoromethyl)pyridin-4-yl)oxy)-N-((6-fluoroisoquinolin-5-yl)methyl)cyclobutan-1-amine] was tested. Which IC50 did it give?
**A.** 1.65 µM

**Q.** How did the IC50 turn out when `CS(=O)(=O)NCC(O)c1cc(F)c(CN[C@H]2C[C@H](Oc3ccc(F)c(C(F)(F)F)c3)C2)c2ccncc12` (stereo partly shown) [Example 66, N-(2-(6-fluoro-5-((((1r,3r)-3-(4-fluoro-3-(trifluoromethyl)phenoxy)cyclobutyl)amino)methyl)isoquinolin-8-yl)-2-hydroxyethyl)methanesulfonamide] was run?
**A.** 1.11 µM

**Q.** `NS(=O)(=O)NCC(O)c1cc(F)c(CN[C@H]2C[C@H](Oc3ccc(F)c(C(F)(F)F)c3)C2)c2ccncc12` (stereo partly shown) [Example 67, N-(2-(6-fluoro-5-((((1r,3r)-3-(4-fluoro-3-(trifluoromethyl)phenoxy)cyclobutyl)amino)methyl)isoquinolin-8-yl)-2-hydroxyethyl) sulfuric diamide] was tested. Which IC50 did it give?
**A.** 0.00377 µM

**Q.** With `Fc1ccc2cnccc2c1CN[C@H]1C[C@H](Oc2nc(C(F)(F)F)cs2)C1` [Example 107, (1r,3r)-N-((6-fluoroisoquinolin-5-yl)methyl)-3-((4-(trifluoromethyl)thiazol-2-yl)oxy)cyclobutan-1-amine] as the compound, how does the IC50 read?
**A.** 1.91 µM

**Q.** Which IC50 does the source give for `Fc1cc(O[C@H]2C[C@H](NCc3c(F)ccc4cnccc34)C2)ccc1OC(F)F` [Example 51, (1r,3r)-3-(4-(difluoromethoxy)-3-fluorophenoxy)-N-((6-fluoroisoquinolin-5-yl)methyl)cyclobutan-1-amine] here?
**A.** 0.117 µM

**Q.** For `Fc1ccc2cnccc2c1CN[C@H]1C[C@H](Oc2cnc(Cl)c(C(F)(F)F)c2)C1` [Example 62, (1r,3r)-3-((6-chloro-5-(trifluoromethyl)pyridin-3-yl)oxy)-N-((6-fluoroisoquinolin-5-yl)methyl)cyclobutan-1-amine], which IC50 is on record?
**A.** 0.336 µM

**Q.** For `O=C(O)C(O)c1cc(F)c(CN[C@H]2C[C@H](Oc3ccc(F)c(C(F)(F)F)c3)C2)c2ccncc12` (stereo partly shown) [Example 72, 2-(6-fluoro-5-((((1r,3r)-3-(4-fluoro-3-(trifluoromethyl)phenoxy)cyclobutyl)amino)methyl)isoquinolin-8-yl)-2-hydroxyacetic acid], which IC50 is on record?
**A.** 0.0521 µM

**Q.** `FC(F)(F)c1ccc(O[C@H]2C[C@H](NCc3cccc4cnccc34)C2)cn1` [Example 112, (1r,3r)-N-(isoquinolin-5-ylmethyl)-3-((6-(trifluoromethyl)pyridin-3-yl)oxy)cyclobutan-1-amine] was tested. Which IC50 did it give?
**A.** 2.69 µM
